Data published in US9453008B2, “Antithrombotic and antiatherosclerotic agent and method for producing same (variants)” (PROTON OOO, priority 2011, dated 2016).
Entries after “also recorded” stand apart in the source; their conditions may differ.

Columns and labels:
[1] = system: pressor action of mesatonum; assay: Pressor effect of mesatonum in normotensive narcotized animals; type: in vivo; conditions: doses 0.01-1.0 mg/kg; mesatonum 5 μg/kg
Experimental: (§1) The effects of the compound of formula I on the pressor effects of noradrenaline (NA, 10-15 μg/kg), mesatonum (M, 5 μg/kg) and angiotensin (AI, 5 μg/kg) were studied on normotensive narcotized […]. Antihypertensive action of the compound of formula I was assessed relative to the pressor effects of the control administration of the aforementioned compounds.

rat hemostasis = assay: Model of parenchymal hemorrhage (bleeding time) after oral administration; type: in vivo
Experimental: The model of parenchymal hemorrhage characterizes hemostasis through the stimulation of coagulation cascade. Usually, it is rather difficult to obtain considerable change of bleeding time in these models with resorptive-acting compounds. Direct-action anticoagulants (heparin, heparinoids) prolong bleeding time in these models only in high doses, while the effect is detected at different time (up to 3 hours after the administration). Indirect-action […] drugs (oxycoumarines, indandiones, etc.) usually begin to increase bleeding after a certain delay period (12-48 hours after the administration), which is easily explainable by the modern understanding of their mechanism of action: they stop the biosynthesis of blood clotting plasma factors II, VII, IX, X, while the duration of delay period is determined by the amount of these factors, produced in the liver before the administration of vitamin K reductase inhibitors (oxycoumarines, indandiones).
The duration of parenchymal hemorrhage in the control group was 88.9±1.2 s. Test groups of animals used in the experiments 60 minutes after oral administration of the compound of formula I. After the administration of 8 mg/kg dose the duration of parenchymal hemorrhage in test group increased by 71% compared to original condition, it further increased to 220.6±3.4 s after another hour.

[2] = system: spontaneously hypertensive (SHT) rats; assay: Blood pressure in narcotized SHT rats, intravenous administration; type: in vivo, rat
Experimental: (§2) The experiments were performed on spontaneously hypertensive (SHT) and normotensive (NT) narcotized male rats using intravenous administration of the tested compounds. The ability of the compound to reduce arterial blood pressure (BP) in SHT rats and prevent spasmogenic reactions to noradrenalin (NA) and angiotensin I (AI).
The compound of formula I was used as a solution in 3% aqueous DMSO. Sodium nitroprusside and nitroglycerin were used as reference drugs.
The administration of the compound of formula I in dose range 0.01-0.1-0.5 and 1.0 mg/kg has exerted dose-dependent antihypertensive effect ranging in time from 30-40 s to 60 min and more.

[3] = system: ADP-induced platelet aggregation; assay: ADP-induced platelet aggregation following intravenous administration in rabbits; type: in vivo, rabbit
Experimental: FIG. 1 is a graph showing the effect of the compound I and sodium nitroprusside on ADP-induced platelet aggregation following intravenous administration in rabbits (% compared to control).
(§3) Antiplatelet activity was assessed by the effect of the compound on platelet aggregation of rabbit blood plasma, induced by ADP (adenosine diphosphate) and arachidonic acid. Platelet aggregation was assessed by the change of optical density of plasma. Studies were performed using both intravenous administration, in comparison with sodium nitroprusside, and oral administration, in comparison with acetylsalicylic acid. Compound I was used in concentrations of 10^−3-10^−7 M (parenteral administration) and in 4-8 and 12 mg/kg doses (oral administration).
In order to make a final conclusion on the ability of the studied compound to inhibit platelet aggregation experiments were performed in conditions of living organism using intravenous and oral administration.
Compound I and sodium nitroprusside (a reference drug) have both inhibited the process of platelet aggregation. However, there were considerable quantitative and temporal differences in their effects. […] This was the only time point where we managed to observe its activity. After 1 hour the effect disappeared.

[4] = General toxicity and tolerability on animals; type: in vivo
Experimental: Research of antiplatelet properties of the compound I, its effect on the activity of soluble guanylate cyclase and NO generation was performed by experimentation in vitro, its ability to exert hypotensive and antihypertensive action was studied on animals. General toxicity and tolerability of the compound of formula I were studied on animals.

[5] = Cumulation after 28 days administration; type: in vivo
From the text: (§4) Acute toxicity of the compound in mice in internal administration is 8.9±0.75 g/kg, cumulation after 28 days administration is weak (lethality less than 50%).

[6] = system: pressor effect of angiotensin I; assay: Pressor effect of angiotensin I after intravenous administration in normotensive narcotized rats; type: in vivo, rat
Experimental: as §2, §1

[7] = system: ADP-induced platelet aggregation; assay: ADP-induced platelet aggregation following peroral administration in rabbits; type: in vivo, rabbit
Experimental: FIG. 2 is a graph showing the changes in platelet functional activity following peroral administration of the compound I in a model of ADP-induced aggregation in rabbits (% compared to control).
as §3

[8] = system: ADP-induced platelet aggregation; assay: ADP-induced platelet aggregation of rabbit blood plasma, in vitro; type: cell-based; conditions: concentrations of 10^−3-10^−7 M; listed as compound of formula I
Experimental: as §3

mice = assay: Acute toxicity (LD50); type: in vivo; conditions: mice, internal administration
From the text: as §4

Acute toxicity (LD50) = type: in vivo; conditions: mouse, in vivo, other: internal administration
From the text: as §4

SMILES: CN1CC(CO)O/C1=C(C#N)/C=C1/Nc2ccccc2C1=O (centres unmarked) [Compound I, 2-[2-Cyano-2-[5-(hydroxymethyl)-3-methyl-1,3-oxazolidin-2-ylidene]ethylidene]indolin-3-one]
- Effect on the pressor action of M (mesatonum) [1]: does not significantly affect
- Increase of duration of parenchymal hemorrhage compared to original condition (rat hemostasis; 8 mg/kg oral, 60 minutes after administration): 71%
- Duration of parenchymal hemorrhage (rat hemostasis; 8 mg/kg oral, after another hour (control 88.9±1.2 s)): 220.6 ± 3.4 s
- Duration of parenchymal hemorrhage vs control (rat hemostasis; 8 mg/kg oral, end of experiment (240 min)): did not differ from the control group
- Duration of bleeding (rat hemostasis; 16 mg/kg oral, first 60 min of the observation): increased twofold
- Effect on rat hemostasis in the model of parenchymal hemorrhage (rat hemostasis; rat, in vivo): statistically significantly slows down rat hemostasis
- Duration of BP reduction ([2]; 0.01 mg/kg dose intravenous): 30 s
- Reduction of BP ([2]; 0.01 mg/kg dose intravenous): 10-12 mmHg
- Reduction of BP, mmHg (Δ) ([2]; 0.01 mg/kg intravenously, 10-20 s): −12 ± 5 mmHg
- Reduction of BP, mmHg (Δ) ([2]; 0.1 mg/kg intravenously, 10-20 s): −15 ± 5 mmHg
- Reduction of BP, mmHg (Δ) ([2]; 0.1 mg/kg intravenously, 5 min): −20 ± 7 mmHg
- Reduction of BP, mmHg (Δ) ([2]; 0.5 mg/kg intravenously, 10-20 s): −10 ± 3 mmHg
- Reduction of BP, mmHg (Δ) ([2]; 0.5 mg/kg intravenously, 5 min): −20 ± 8 mmHg
- Reduction of BP, mmHg (Δ) ([2]; 0.5 mg/kg intravenously, 30 min): −25 ± 8 mmHg
- Reduction of BP, mmHg (Δ) ([2]; 0.5 mg/kg intravenously, 60 min): −30 ± 7 mmHg
- Duration of BP reduction ([2]; 1.0 mg/kg dose intravenous): 3600 s
- Reduction of BP (maximal effect) ([2]; 1.0 mg/kg dose intravenous): 25-30 mmHg
- Reduction of BP, mmHg (Δ) ([2]; 1.0 mg/kg intravenously, 10-20 s): −12 ± 3 mmHg
- Reduction of BP, mmHg (Δ) ([2]; 1.0 mg/kg intravenously, 5 min): −25 ± 7 mmHg
- Reduction of BP, mmHg (Δ) ([2]; 1.0 mg/kg intravenously, 30 min): −30 ± 7 mmHg
- Reduction of BP, mmHg (Δ) ([2]; 1.0 mg/kg intravenously, 60 min): −30 ± 8 mmHg
- Reduction of BP, mmHg (Δ) ([2]; 1.0 mg/kg intravenously, 120 min): −30 ± 8 mmHg
- Inhibition of induced functional activity of platelets compared with sodium nitroprusside ([3]; intravenous administration to rabbits): as potent as that of sodium nitroprusside, but persists for a longer time
- Time at which inhibition of platelet aggregation stopped/disappeared ([3]; intravenous, rabbits): 3 h
- Time of maximal potency of inhibition of platelet aggregation ([3]; intravenous, rabbits): 60 min
- General toxicity and tolerability [4]: non-toxic, well tolerated
- Neurotoxicity ([4]; relatively high doses): does not exhibit neurotoxicity
- Lethality [5]: less than 50%
- Inhibition of pressor reaction (%) induced by Angiotensin I ([6]; 0.01 mg/kg intravenous, 0 - absence of effect): 0%
- Inhibition of pressor reaction (%) induced by Angiotensin I ([6]; 0.05 mg/kg intravenous): 10%
- Inhibition of pressor reaction (%) induced by Angiotensin I ([6]; 0.1 mg/kg intravenous, listed as Compound of formula I): 25-30%
- Inhibition of pressor reaction (%) induced by Angiotensin I ([6]; 0.1 mg/kg intravenous, listed as compound of formula I): 25%
- Inhibition of pressor reaction (%) induced by Angiotensin I ([6]; 0.5 mg/kg intravenous, 0 - absence of effect): 30%
- Inhibition of pressor reaction (%) induced by Angiotensin I ([6]; 1.0 mg/kg intravenous): 30-40%
- Duration of effect on ADP-induced aggregation ([7]; enteral administration): about 3 hours
- Inhibition of ADP-induced aggregation (maximal potency) ([7]; peroral, rabbits, after 2 hours): 40%
- Inhibition of ADP-induced aggregation ([7]; peroral, rabbits, after the first hour): 30%
- Inhibition of ADP-induced aggregation (as a tendency) ([7]; peroral, rabbits, persisting for all 4 hours of observation): 15-25%
- In vitro antiplatelet activity (inhibition of ADP-induced platelet aggregation) [8]: significantly inhibits; also recorded: as good as that of acetylsalicylic acid
- Acute toxicity (mice): 8.9 ± 0.75 g/kg
- LD50 (Acute toxicity (LD50)): 8900 mg/kg
